Test results taken from patent publication US20230066011A1, “PYRROLOPYRIMIDINE DERIVATIVE, AND PHARMACEUTICAL COMPOSITION FOR PREVENTING OR TREATING PROTEIN KINASE-RELATED DISEASE COMPRISING SAME AS ACTIVE INGREDIENT” (VORONOI CO., LTD., priority 2019, published 2023).

Columns and labels:
human GST-DYRK1A = biological target: T1, human GST-DYRK1A (Homo sapiens, UniProt Q13627); test: GST-DYRK1A enzyme inhibition, ADP-Glo kinase assay; format: biochemical; conditions: ATP 10 μM, GST-DYRK1A full length, read-out: DYRK1 IC50
T1 construct: purified human GST-DYRK1A (full length, Thermo Scientifics) enzyme; purchased Thermo Scientifics
In short: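 Full-length human GST-DYRK1A (10 ng) with 10 μM ATP and specific substrate in 40 mM Tris-HCl pH 7.4, 20 mM MgCl2, 0.5 mg/mL BSA, 50 μM DTT, 1 h at 25 °C. ADP formation read by ADP-Glo luminescence relative to solvent control; IC50 from three data sets.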

human GST-CLK1 = biological target: T2, human GST-CLK1 (Homo sapiens, UniProt P49759); test: GST-CLK1 enzyme inhibition, ADP-Glo kinase assay; format: biochemical; conditions: ATP 10 μM, GST-CLK1 129-end
T2 construct: purified human GST-CLK1 (129-end, SignalChem) enzyme; purchased SignalChem
In short: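 Human GST-CLK1 (129-end, 3 ng) reacted with substrate and 10 μM ATP for 1 h at 25° C in 40 mM Tris-HCl pH 7.4, 20 mM MgCl2, 0.5 mg/mL BSA, 50 μM DTT. ADP-Glo luminescence was normalised to solvent control; IC50 (nM) from 3 data sets.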

T2 sequence (P49759 129-484 limits assumed): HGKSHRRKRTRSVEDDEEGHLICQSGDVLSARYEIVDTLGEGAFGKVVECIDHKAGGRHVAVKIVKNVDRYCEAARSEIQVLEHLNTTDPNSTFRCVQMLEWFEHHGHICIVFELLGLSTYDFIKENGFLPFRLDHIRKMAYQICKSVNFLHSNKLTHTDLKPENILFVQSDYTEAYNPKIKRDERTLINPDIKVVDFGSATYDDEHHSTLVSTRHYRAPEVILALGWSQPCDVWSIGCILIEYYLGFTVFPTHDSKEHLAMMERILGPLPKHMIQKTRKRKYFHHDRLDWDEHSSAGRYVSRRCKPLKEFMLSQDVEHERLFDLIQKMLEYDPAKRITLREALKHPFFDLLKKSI

| Compound | IC50 (human GST-DYRK1A) [nM] | IC50 (human GST-CLK1) [nM] |
| --- | --- | --- |
| COc1cc(P2(=O)CCN(C3COC3)CC2)ccc1Nc1nc(NCC2CCC2)c2c(C#N)c[nH]c2n1 [Example 307, 4-((cyclo-butylmethyl)amino)-2-((2-methoxy-4-(1-(oxetan-3-yl)-4-oxido-1,4-azaphosphinan-4-yl)phenyl)amino)-7H-pyrrolo[2,3-d]pyrimidine-5-carbonitrile] | 301 to 1000 | 101 to 300 |
| COc1cc(P2(=O)CCN(C3CC3)CC2)ccc1Nc1nc(NCC2CCCC2)c2c(C#N)c[nH]c2n1 [Example 308, 4-((cyclo-pentylmeth-yl)amino)-2-((4-(1-cyclopropyl-4-oxido-1,4-azaphosphinan-4-yl)-2-methoxyphenyl)a-mino)-7H-pyrrolo[2,3-d]pyrimidine-5-carbonitrile] | 301 to 1000 | 301 to 1000 |
| COc1cc(P2(=O)CCN(C3COC3)CC2)ccc1Nc1nc(NCC2CCCC2)c2c(C#N)c[nH]c2n1 [Example 309, 4-((cyclo-pentylmeth-yl)amino)-2-((2-methoxy-4-(1-(oxetan-3-yl)-4-oxido-1,4-azaphosphinan-4-yl)phenyl)amino)-7H-pyrrolo[2,3-d]pyrimidine-5-carbonitrile] | 301 to 1000 | 301 to 1000 |
| COc1cc(P2(=O)CCN(C3CC3)CC2)ccc1Nc1nc(NCCS(C)(=O)=O)c2c(C#N)c[nH]c2n1 [Example 310, 2-((4-(1-cycloproopyl-4-oxido-1,4-azaphosphinan-4-yl)-2-methoxyphenyl)a-mino)-4-((2-(methylsulfonyl)ethyl)amino)-7H-pyrrolo[2,3-d]pyrimidine-5-carbonitrile] | 301 to 1000 | 101 to 300 |
| COc1cc(P2(=O)CCN(C3COC3)CC2)ccc1Nc1nc(NC2COC2)c2c(C#N)c[nH]c2n1 [Example 311, 2-((2-methoxy-4-(1-(oxetan-3-yl)-4-oxido-1,4-azaphosphinan-4-yl)phenyl)amino)-4-(oxetan-3-ylamino)-7H-pyrrolo[2,3-d]pyrimidine-5-carbonitrile] | 301 to 1000 | 301 to 1000 |
| COCCNc1nc(Nc2ccc(P3(=O)CCN(C4COC4)CC3)cc2OC)nc2[nH]cc(C#N)c12 [Example 312, 2-((2-methoxy-4-(1-(oxetan-3-yl)-4-oxido-1,4-azaphosphinan-4-yl)phenyl)amino)-4-((2-methoxyethyl)amino)-7H-pyrrolo[2,3-d]pyrimidine-5-carbonitrile] | 101 to 300 | < 100 |
| N#Cc1c[nH]c2nc(Nc3ccc(C(=O)N4CCN(C5COC5)CC4)c4c3OCCO4)nc(NCC3CC3)c12 [Example 317, 4-((cyclo-propylmeth-yl)amino)-2-((8-(4-(oxetan-3-yl)piperazine-1-carbonyl)-2,3-dihydrobenzo[b] [1,4]dioxin-5-yl)amino)-7H-pyrrolo[2,3-d]pyrimidine-5-carbonitrile] | 301 to 1000 | < 100 |
| N#Cc1c[nH]c2nc(Nc3ccc(C(=O)N4CCN(C5COC5)CC4)c4c3OCCO4)nc(NCC3CCC3)c12 [Example 318, 4-((cyclo-butylmethyl)amino)-2-((8-(4-(oxetan-3-yl)piperazine-1-carbonyl)-2,3-dihydrobenzo[b] [1,4]dioxin-5-yl)amino)-7H-pyrrolo[2,3-d]pyrimidine-5-carbonitrile] | 301 to 1000 | 101 to 300 |
| COc1cc(P2(=O)CCN(C3CC3)CC2)ccc1Nc1nc(NC2CCCCC2)c2c(C#N)c[nH]c2n1 [Example 323, 4-(cyclo-hexylamino)-2-((4-(1-cyclopropyl-4-oxido-1,4-azaphosphinan-4-yl)-2-methoxyphenyl)a-mino)-7H-pyrrolo[2,3-d]pyrimidine-5-carbonitrile] | 101 to 300 | 301 to 1000 |
| COc1cc(P2(=O)CCN(C3CCOCC3)CC2)ccc1Nc1nc(NC2CCCCC2)c2c(C#N)c[nH]c2n1 [Example 324, 4-(cyclo-hexylamino)-2-((2-methoxy-4-(4-oxido-1-(tetrahydro-2H-pyran-4-yl)-1,4-azaphosphinan-4-yl)phenyl)amino)-7H-pyrrolo[2,3-d]pyrimidine-5-carbonitrile] | 301 to 1000 | < 100 |

The remaining lines, values ahead:

| IC50 (human GST-DYRK1A) [nM] | IC50 (human GST-CLK1) [nM] | Compound |
| --- | --- | --- |
| 301 to 1000 | < 100 | CCCNc1nc(Nc2ccc(C(=O)N3CC(CO)(CO)C3)c3c2OCCO3)nc2[nH]cc(C#N)c12 [Example 327, 2-((8-(3,3-bis(hydroxy-methyl)azetidine-1-carbonyl)-2,3-dihydrobenzo[b] [1,4]dioxin-5-yl)amino)-4-(propylamino)-7H-pyrrolo[2,3-d]pyrimidine-5-carbonitrile] |
| 301 to 1000 | < 100 | CC(C)CNc1nc(Nc2ccc(C(=O)N3CC(CO)(CO)C3)c3c2OCCO3)nc2[nH]cc(C#N)c12 [Example 328, 2-((8-(3,3-bis (hydroxymethyl)azetidine-1-carbonyl)-2,3-dihydrobenzo[b] [1,4]dioxin-5-yl)amino)-4-(isobutylamino)-7H-pyrrolo[2,3-d]pyrimidine-5-carbonitrile] |
| 301 to 1000 | < 100 | CC(C)Nc1nc(Nc2ccc(C(=O)N3CC(CO)(CO)C3)c3c2OCCO3)nc2[nH]cc(C#N)c12 [Example 329, 2-((8-(3,3-bis (hydroxymethyl)azetidine-1-carbonyl)-2,3-dihydrobenzo[b] [1,4]dioxin-5-yl)amino)-4-(isopropylamino)-7H-pyrrolo[2,3-d]pyrimidine-5-carbonitrile] |
| 301 to 1000 | < 100 | CC[C@@H](C)Nc1nc(Nc2ccc(C(=O)N3CC(CO)(CO)C3)c3c2OCCO3)nc2[nH]cc(C#N)c12 [Example 330, (R)-2-((8-(3,3-bis(hydroxy-methyl)azetidine-1-carbonyl)-2,3-dihydrobenzo[b] [1,4]dioxin-5-yl)amino)-4-(sec-butylamino)-7H-pyrrolo[2,3-d]pyrimidine-5-carbonitrile] |
| 301 to 1000 | < 100 | CC[C@H](C)Nc1nc(Nc2ccc(C(=O)N3CC(CO)(CO)C3)c3c2OCCO3)nc2[nH]cc(C#N)c12 [Example 331, (S)-2-((8-(3,3-bis(hydroxy-methyl)azetidine-1-carbonyl)-2,3-dihydrobenzo[b] [1,4]dioxin-5-yl)amino)-4-(sec-butylamino)-7H-pyrrolo[2,3-d]pyrimidine-5-carbonitrile] |
| 301 to 1000 | < 100 | N#Cc1c[nH]c2nc(Nc3ccc(C(=O)N4CC(CO)(CO)C4)c4c3OCCO4)nc(NC3CCC3)c12 [Example 333, 2-((8-(3,3-bis (hydroxymethyl)azetidine-1-carbonyl)-2,3-dihydrobenzo[b] [1,4]dioxin-5-yl)amino)-4-(cyclobutyl-amino)-7H-pyrrolo[2,3-d]pyrimidine-5-carbonitrile] |
| 301 to 1000 | < 100 | N#Cc1c[nH]c2nc(Nc3ccc(C(=O)N4CC(CO)(CO)C4)c4c3OCCO4)nc(NC3CCCC3)c12 [Example 334, 2-((8-(3,3-bis (hydroxymethyl)azetidine-1-carbonyl)-2,3-dihydrobenzo[b] [1,4]dioxin-5-yl)amino)-4-(cyclopentyl-amino)-7H-pyrrolo[2,3-d]pyrimidine-5-carbonitrile] |
| 101 to 300 | < 100 | N#Cc1c[nH]c2nc(Nc3ccc(C(=O)N4CC(CO)(CO)C4)c4c3OCCO4)nc(N[C@@H]3CCOC3)c12 [Example 335, (R)-2-((8-(3,3-bis(hydroxy-methyl)azetidine-1-carbonyl)-2,3-dihydrobenzo[b] [1,4]dioxin-5-yl)amino)-4-((tetrahydrofuran-3-yl)amino)-7H-pyrrolo[2,3-d]pyrimidine-5-carbonitrile] |
